# Assay results from patent US20080039455A1, “PYRAZOLOPYRIMIDINES AND SALTS THEREOF, PHARMACEUTICAL COMPOSITIONS COMPRISING SAME, METHODS OF PREPARING SAME AND USES OF SAME” (priority 2006, published 2008).
# Target: T1, human recombinant ALK1 (GST fused to ALK1 intracellular domain [His142-Gln503]) (Homo sapiens, UniProt P37023)
# T1 construct: GST fused to ALK1 intracellular domain [His142-Gln503]; made in house
# T1 sequence (P37023 142-503): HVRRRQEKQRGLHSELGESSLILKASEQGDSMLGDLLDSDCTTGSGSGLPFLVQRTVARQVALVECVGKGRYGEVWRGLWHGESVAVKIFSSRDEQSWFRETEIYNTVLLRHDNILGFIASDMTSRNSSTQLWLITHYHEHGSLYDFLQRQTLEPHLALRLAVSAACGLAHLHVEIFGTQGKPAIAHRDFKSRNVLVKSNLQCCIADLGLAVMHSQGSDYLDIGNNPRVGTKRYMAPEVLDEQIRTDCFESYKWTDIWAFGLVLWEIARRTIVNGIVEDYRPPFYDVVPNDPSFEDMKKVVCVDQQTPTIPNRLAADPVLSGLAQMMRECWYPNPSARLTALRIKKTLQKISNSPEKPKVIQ
# Test: ALK1-Kinase Flashplate-Assay
# Format: biochemical
# Settings: 0.5 μM ATP, biotinylated α-casein substrate; read-out: Assay 1 (ALK1-Kinase Flashplate-Assay IC50 class)
# Source text: Biological Assay 1: ALK1-Kinase Flashplate-Assay
# ALK1 phosphorylates serine/threonine residues of the biotinylated substrate bovine α-casein in the presence of [γ-^33P]ATP. Detection of the radiolabeled phosphorylated product is achieved by binding to streptavidine-coated Flashplates. The biotin moieties of biotinylated casein bind with high affinity to the streptavidine. The radiolabeled biotinylated casein produced by the ALK1 kinase reaction is able to generate a […] signal when strepatavidine-mediated binding occurs to the scintillant-containing surface of the Flashplates due to the close proximity of the radiolabel and the scintillant. […] The signals obtained are therefore indicative of the ALK1 kinase activity. Measurement is performed in a Perkin-Elmer TopCount or Perkin-Elmer ViewLux instrument.
# Enzyme: Purified human recombinant ALK1 (GST fused to ALK1 intracellular domain [His142-Gln503]) produced in-house, aliquots stored at −80° C.;
# Diluted enzyme working solution: 2.5 ng/μl ALK1 (in assay buffer) freshly prepared and chilled on ice until use.
# Substrate: biotinylated bovine α-casein. Unbiotinylated casein obtained from Sigma was biotinylated by standard procedures using N-hydroxysuccinimide (NHS) ester of biotin.
# Substrate working solution: 0.83 μM ATP, 1.67 μM biotinylated a-casein, 7.4 nCi [γ-^33P]ATP/μl in assay buffer
# Assay plates: 384-well plates, small volume, white, Greiner (# 784075)
# Flashplates: Streptavidin-coated Flashplates, Perkin Elmer (384-well # SPM410A)
# Assay buffer: 50 mM Tris/HCl pH 8.0, 1 mM MnCl2, 1 mM DTT, 0.01% NP40, 0.5× Complete EDTA-free
# Stop solution: 33.3 μM ATP, 33.3 mM EDTA, 0.07% Triton X-100 in PBS
# Saturating buffer for Flashplates: 100 μM ATP, 0.2% Triton X-100 in PBS
# Sealing tape: Greiner (# 676080)
# Protocol for small volume 5 μl assay (all steps are performed at 20° C., pipetted with CyBi-Well and Multidrop Micro): • 1. 50 nl or 250 nl compound in 100% DMSO • 2. addition of 3 μl substrate working solution with CyBi-Well pipettor • 3. addition of 2 μl enzyme working solution with Multidrop Micro incubation for 60 min at room temperature • 4. addition of 15 μl Stop solution with CyBi-Well pipettor • 5. transfer of 18 μl assay mixture to Flashplates** with CyBi-Well pipettor incubation for at least 3 h at room temperature or over night at 4° C. to allow binding to the streptavidine-coated Flashplates • 6. washing the Flashplates 3 times with 50 μl PBS without Ca++ and Mg++ • 7. sealing with sealing tape • 8. Measurement in Topcount (60 sec/well) **Saturation of Flashplates: The Flashplates are preincubated for at least 1 hour with 50 μl saturating buffer. Remove 18 μl from the 50 μl and transfer 18 μl of the assay mixture to the Flashplate.
# Final concentrations, calculated for 5 μl reaction volume: ALK1 5 ng/well; 1 μM biotinylated α-casein; 0.5 μM ATP; 22 nCi/well [γ-^33P]ATP; 1 mM MnCl2; 1 mM DTT; 50 mM Tris-HCl; pH 8.0; 0.01% NP40; 0.5× Complete EDTA-free; 1% or 5% DMSO.
# The data were normalised (enzyme reaction without inhibitor=0% inhibition, enzyme reaction in the presence of 10 mM EDTA=100% inhibition) and IC50 values were calculated by a 4 parameter fit using an in-house software.
row,IC50 [nM],SMILES
1,1000 to 10000,"Oc1ccc(Nc2ccn3ncc(-c4ccc5c(c4)OCO5)c3n2)cc1 [Example 45, 4-(3-Benzo[1,3]dioxol-5-yl-pyrazolo[1,5-a]pyrimidin-5-ylamino)-phenol]"
2,1000 to 10000,"Cc1ccc(S(=O)(=O)Nc2ccc(Nc3ccn4ncc(-c5ccc(C(=O)NCCN(C)C)cc5)c4n3)cc2)cc1 [Example 320, N-(2-Dimethylamino-ethyl)-4-{5-[4-(toluene-4-sulfonylamino)-phenylamino]-pyrazolo[1,5-a]pyrimidin-3-yl}-benzamide]"
3,1000 to 10000,"c1ccc(Oc2ccc(Nc3ccn4ncc(-c5ccncc5)c4n3)cc2)cc1 [Example 468, (4-Phenoxy-phenyl)-(3-pyridin-4-yl-pyrazolo[1,5-a]pyrimidin-5-yl)-amine]"
4,1000 to 10000,"COc1cc(Nc2ccn3ncc(-c4cccc(C(C)=O)c4)c3n2)cc(OC)c1OC [Example 179, 1-{3-[5-(3,4,5-Trimethoxy-phenylamino)-pyrazolo[1,5-a]pyrimidin-3-yl]-phenyl}-ethanone]"
5,1000 to 10000,"COc1cc(-c2cnn3ccc(NC4CCC(O)CC4)nc23)ccc1O (stereo not shown) [Example 160, 4-[5-(4-Hydroxy-cyclohexylamino)-pyrazolo[1,5-a]pyrimidin-3-yl]-2-methoxy-phenol]"
6,< 1000,"COc1ccc(-c2cnn3ccc(Nc4ccc(O)cc4)nc23)cn1 [Example 147, 4-[3-(6-Methoxy-pyridin-3-yl)-pyrazolo[1,5-a]pyrimidin-5-ylamino]-phenol]"
7,< 1000,"Cc1ccc(Nc2ccn3ncc(-c4ccc(O)cc4)c3n2)cc1NS(C)(=O)=O [Example 60, N-{5-[3-(4-Hydroxy-phenyl)-pyrazolo[1,5-a]pyrimidin-5-ylamino]-2-methyl-phenyl}-methanesulfonamide]"
8,1000 to 10000,"c1cc(-c2cnn3ccc(Nc4ccc(N5CCOCC5)cc4)nc23)cs1 [Example 467, (4-Morpholin-4-yl-phenyl)-(3-thiophen-3-yl-pyrazolo[1,5-a]pyrimidin-5-yl)-amine]"
9,1000 to 10000,"N#Cc1ccc(-c2cnn3ccc(NCCO)nc23)cc1 [Example 119, 4-[5-(2-Hydroxy-ethylamino)-pyrazolo[1,5-a]pyrimidin-3-yl]-benzonitrile]"
10,1000 to 10000,"COc1cc(Nc2ccn3ncc(-c4cccc(O)c4)c3n2)cc(OC)c1OC [Example 138, 3-[5-(3,4,5-Trimethoxy-phenylamino)-pyrazolo[1,5-a]pyrimidin-3-yl]-phenol]"
11,< 1000,"COc1ccc(Nc2ccn3ncc(-c4cc(OC)c(OC)c(OC)c4)c3n2)cn1 [Example 90, (6-Methoxy-pyridin-3-yl)-[3-(3,4,5-trimethoxy-phenyl)-pyrazolo[1,5-a]pyrimidin-5-yl]-amine]"
12,1000 to 10000,"COc1cc(-c2cnn3ccc(Nc4cc(OC)c(OC)c(OC)c4)nc23)ccc1O [Example 424, 2-Methoxy-4-[5-(3,4,5-trimethoxy-phenylamino)-pyrazolo[1,5-a]pyrimidin-3-yl]-phenol]"
13,1000 to 10000,"COc1ccc(-c2cnn3ccc(Nc4ccc(Oc5ccccc5)cc4)nc23)cc1OC [Example 33, [3-(3,4-Dimethoxy-phenyl)-pyrazolo[1,5-a]pyrimidin-5-yl]-(4-phenoxy-phenyl)-amine]"
14,1000 to 10000,"CS(=O)(=O)Nc1cccc(-c2cnn3ccc(Nc4ccc(Oc5ccccc5)cc4)nc23)c1 [Example 42, N-{3-[5-(4-Phenoxy-phenylamino)-pyrazolo[1,5-a]pyrimidin-3-yl]-phenyl}-methanesulfonamide]"
15,1000 to 10000,"CC(=O)c1cccc(-c2cnn3ccc(Nc4ccc(O)cc4)nc23)c1 [Example 193, 1-{3-[5-(4-Hydroxy-phenylamino)-pyrazolo[1,5-a]pyrimidin-3-yl]-phenyl}-ethanone]"
16,1000 to 10000,"COc1ccc(-c2cnn3ccc(Nc4ccc(C(C)C)cc4)nc23)cc1OC [Example 37, [3-(3,4-Dimethoxy-phenyl)-pyrazolo[1,5-a]pyrimidin-5-yl]-(4-isopropyl-phenyl)-amine]"

row,IC50 [nM],SMILES
1,1000 to 10000,"Oc1ccc(-c2cnn3ccc(Nc4ccc(N5CCOCC5)cc4)nc23)cc1 [Example 28, 4-[5-(4-Morpholin-4-yl-phenylamino)-pyrazolo[1,5-a]pyrimidin-3-yl]-phenol]"
2,1000 to 10000,"COc1cc(-c2cnn3ccc(Nc4cccc(Cl)c4)nc23)ccc1O [Example 314, 4-[5-(3-Chloro-phenylamino)-pyrazolo[1,5-a]pyrimidin-3-yl]-2-methoxy-phenol]"
3,1000 to 10000,"c1csc(-c2cnn3ccc(Nc4ccc(N5CCOCC5)cc4)nc23)c1 [Example 234, (4-Morpholin-4-yl-phenyl)-(3-thiophen-2-yl-pyrazolo[1,5-a]pyrimidin-5-yl)-amine]"
4,< 1000,"Cn1cc(-c2cnn3ccc(Nc4ccccc4)nc23)cn1 [Example 244, [3-(1-Methyl-1H-pyrazol-4-yl)-pyrazolo[1,5-a]pyrimidin-5-yl]-phenyl-amine]"
5,1000 to 10000,"CC(=O)Nc1cccc(-c2cnn3ccc(Nc4ccccc4)nc23)c1 [Example 283, N-[3-(5-Phenylamino-pyrazolo[1,5-a]pyrimidin-3-yl)-phenyl]-acetamide]"
6,1000 to 10000,"Oc1cccc(-c2cnn3ccc(Nc4ccccc4)nc23)c1 [Example 271, 3-(5-Phenylamino-pyrazolo[1,5-a]pyrimidin-3-yl)-phenol]"
7,1000 to 10000,"COc1ccc(-c2cnn3ccc(Nc4ccccc4)nc23)cc1OC [Example 478, [3-(3,4-Dimethoxy-phenyl)-pyrazolo[1,5-a]pyrimidin-5-yl]-phenyl-amine]"
8,1000 to 10000,"CC(=O)c1cccc(-c2cnn3ccc(NCc4cccnc4)nc23)c1 [Example 227, 1-(3-{5-[(Pyridin-3-ylmethyl)-amino]-pyrazolo[1,5-a]pyrimidin-3-yl}-phenyl)-ethanone]"
9,1000 to 10000,"COc1cccc(-c2cnn3ccc(Nc4ccccc4)nc23)c1 [Example 241, [3-(3-Methoxy-phenyl)-pyrazolo[1,5-a]pyrimidin-5-yl]-phenyl-amine]"
10,1000 to 10000,"COc1ccc(-c2cnn3ccc(Nc4ccc(O)cc4)nc23)c(OC)c1 [Example 435, 4-[3-(2,4-Dimethoxy-phenyl)-pyrazolo[1,5-a]pyrimidin-5-ylamino]-phenol]"
11,< 1000,"Oc1ccc(Nc2ccn3ncc(-c4ccc(O)cc4)c3n2)cc1 [Example 49, 4-[5-[(4-hydroxyphenyl)amino]pyrazolo[1,5-a]pyrimidin-3-yl]-phenol]"
12,< 1000,"Oc1ccc(Nc2ccn3ncc(-c4ccsc4)c3n2)cc1 [Example 48, 4-(3-Thiophen-3-yl-pyrazolo[1,5-a]pyrimidin-5-ylamino)-phenol]"
13,1000 to 10000,"COc1cc(Nc2ccn3ncc(-c4cccc(C(N)=O)c4)c3n2)cc(OC)c1OC [Example 176, 3-[5-(3,4,5-Trimethoxy-phenylamino)-pyrazolo[1,5-a]pyrimidin-3-yl]-benzamide]"
14,1000 to 10000,"c1cncc(CNc2ccn3ncc(-c4ccsc4)c3n2)c1 [Example 291, Pyridin-3-ylmethyl-(3-thiophen-3-yl-pyrazolo[1,5-a]pyrimidin-5-yl)-amine]"
15,1000 to 10000,"COc1cccc(-c2cnn3ccc(NCc4ccncc4)nc23)c1 [Example 215, [3-(3-Methoxy-phenyl)-pyrazolo[1,5-a]pyrimidin-5-yl]-pyridin-4-ylmethyl-amine]"
